Experimental findings from PubChem BioAssay (NCI) are described below.

The experiment has as its system MDA-MB-468 breast. Briefly: growth of human tumour cells (NCI), 48 h.

Values joined by “and” are separate entries in the source; they are usually repeats but may differ in a detail not shown here. Equal entries are not always repeated.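 Step 1: Grow cells in 96-well plates. Step 2: Expose to compound for 48 hours at 5 concentrations. Step 3: Interpolate endpoints linearly; if unreached, use highest concentration. Here, GI50 denotes the concentration required for 50% inhibition of growth. TGI marks complete inhibition of growth.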 Some results are limits rather than exact numbers.

As to `CNC(=O)c1ccc(-c2cnc3ncc(Cc4ccc5ncccc5c4)n3n2)cc1F`, the GI50 was 92.3 µM and the TGI was greater than 100 µM. Take `CCn1c(-c2nonc2N)nc2ccc(F)cc21`: the GI50 was greater than 25 µM and the TGI is greater than 25 µM. `CCNCCOc1ccc(/C(=C(/CC)c2ccc(Cl)cc2)c2ccc(OCCCN(C)C)cc2)cc1`: the GI50 is 1.52 µM and the TGI was 5.35 µM. With `CC(C)(C)OC(=O)c1ccc(NCc2cc(O)ccc2O)cc1`, the GI50 is 1.51 µM and the TGI stood at 3.45 µM. On the same counts, the results for `COc1ccc(/C=N/NC(=O)c2[nH]c3ccc(Br)cc3c2-c2ccccc2)s1` are 0.0586 µM and 3.78 µM. On the same counts, the results for `CCOC(=O)[C@@H](C)C[C@H](Cc1ccccc1)NC(=O)c1csc([C@@H](C[C@H](C(C)C)N(C)C(=O)[C@@H](NC(=O)[C@H]2CCCCN2C)C(C)(C)C)OC(C)=O)n1` are less than 0.00167 µM and 0.0752 µM. On the same counts, the results for `O=C(N/N=C/c1ccc(Cl)cc1Cl)c1ccccc1Nc1cccc(C(F)(F)F)c1` are 2.88 µM and 12 µM. On to `C=CC(=O)Nc1cccc(Nc2nc(Nc3ccc(OCCOC)cc3)ncc2F)c1`, for which the GI50 was 0.976 µM and the TGI was 3.89 µM.

As to `CCCSc1cc(Cl)nc(N)n1`, the GI50 is 85.8 µM and the TGI was greater than 100 µM. The matching figures for `COc1ccc2c(c1)C=CC(C#N)N2C(=O)c1ccccc1` (configuration not stated): less than 0.01 µM and greater than 100 µM. The matching figures for `C=C1C(=O)O[C@H]2[C@H]1CC/C(COC(=O)c1cc3cc(OC)ccc3[nH]1)=C\CC[C@@]1(C)O[C@@H]21`: 1.13 µM and 2.85 µM. The matching figures for `O=c1cc(-c2ccccc2F)[nH]c2cc3c(cc12)OCO3`: 6.39 µM and greater than 100 µM. Regarding `CS(=O)(=O)Nc1ccc(-c2ccc3c(NC(=O)C4CC4)n[nH]c3c2)cc1`, the GI50 was 7.2 µM and the TGI was greater than 23.7 µM. The matching figures for `FC(F)(F)c1ccc2c(Nc3cccc(C4CC(c5ccccc5)=NN4c4ccc(Cl)cc4)c3)ccnc2c1` (configuration not stated): 3.02 µM and 16.6 µM. On the same counts, the results for `N#Cc1c(-c2ccccc2)nc2c(c(-c3ccccc3)nn2-c2ccccc2)c1-c1ccc(O)cc1` are 2.41 µM and 5.57 µM. On the same counts, the results for `CCCCCCNc1nc(NCCCCCC)c2[nH]c(NCCCCCC)nc2n1` are 1.17 µM and 5.46 µM. On to `CNC(=O)c1cc(Oc2ccc(NC(=O)Nc3ccc(Cl)c(OC(F)(F)F)c3)c(F)c2)ccn1`, for which the GI50 is 1.02 µM and the TGI was 4.77 µM.

As for `CC(=O)Nc1cc(F)cc(-c2ccc3[nH]cc(-c4ccccc4)c3n2)c1`, the GI50 was 2.09 µM and the TGI stood at 6.4 µM.

For `Cc1ncc(NC(=O)c2ccc(CN3CCN(C)CC3)c(C(F)(F)F)c2)cc1Nc1nccc(-c2cccnc2)n1`, the GI50 is 14.6 µM and the TGI was 29.4 µM.

On to `C=CC(=O)N1CCN(c2ncnc3c(F)c(-c4c(O)cccc4F)c(Cl)cc23)CC1`, for which the GI50 is 10.2 µM and the TGI is 31.1 µM. The matching figures for `CCCNCc1cc(C)cc2c1nc(N1CCNCC1)n2Cc1cc(C)c(F)c(C)c1`: 1.88 µM and 3.71 µM. On the same counts, the results for `Oc1ccc(Cc2ccccc2)c2cccnc12` are 1.92 µM and 5.51 µM.

`NCCN1CCN(c2nccc(-c3ccc4ccccc4c3)n2)CC1`: the GI50 was 1.77 µM and the TGI was determined as 3.42 µM. On the same counts, the results for `CC(=O)n1c(-c2ccc(Cl)cc2)nc2c(c1=O)C(c1ccc(Cl)cc1)c1sc3c(Cl)cccc3c1O2` (configuration not stated) are 0.225 µM and 0.56 µM.

Regarding `C=CCOc1c(Br)cc(Br)cc1Br`, the GI50 is 26.4 µM and the TGI was greater than 100 µM. The matching figures for `COc1cc(-c2cn(C)c(=O)c(C)c2C)cc(OC)c1CN1CC[C@H](N2CCN(c3ccc(N[C@H]4CCC(=O)NC4=O)cc3F)CC2)C(F)(F)C1`: 7.26 µM and 22.3 µM. The matching figures for `CN(C)c1nc(-c2cccs2)n2nc(-c3ccc(Cl)cc3)cc2n1`: 3.1 µM and greater than 100 µM. Take `CNC(=O)c1cn(C[C@H](F)CCc2ccc(NC(=O)Cc3cc(OC4CC(F)(F)C4)cc(C)n3)nn2)nn1`: the GI50 is greater than 100 µM and the TGI is greater than 100 µM.

Regarding `COCC(=O)OC1CCn2c1nc1c2C(=O)C(C)=C(NC(C)=O)C1=O` (configuration not stated), the GI50 was 0.27 µM and the TGI is 0.894 µM. The matching figures for `CCN(CCO)CCNc1ccc(C)c2sc3cc(Cl)ccc3c(=O)c12`: 1.29 µM and 2.78 µM. As for `CCN(Cc1c(F)cccc1F)c1ccc(CO)c(Cl)c1`, the GI50 was 0.0148 µM and the TGI came out at 0.033 µM. For the compound `Cc1sc(C)c(-c2ccc(CO)o2)c1-c1ccc(CO)o1`, the GI50 was 0.0178 µM and the TGI was 0.0501 µM.

Consider `Cc1noc(C)c1-c1ccc2[nH]c(=O)n3c2c1OC[C@@H]3c1ccccn1`, for which the GI50 is 0.719 µM and the TGI was greater than 91.3 µM.

`CN1CCN(Cc2ccc(NC(=O)c3ccc(C(C)(C)C)c(C#Cc4cnc5cccnn45)c3)cc2C(F)(F)F)CC1`: the GI50 was 1.98 µM and the TGI was 3.77 µM.

As for `Cc1ccc(-c2nc(C(Cl)Cl)n3nc(-c4ccccc4)cc3n2)cc1`, the GI50 was 0.239 µM and the TGI came to 0.612 µM. On the same counts, the results for `CN(C)CCCNc1c2ccc(Cl)cc2nc2c1oc1ccccc12` are 3.32 µM and 14 µM. In the case of `CNc1nc(NC2CCCC2)nc(Sc2ccc(OC)cc2)n1`, the GI50 is greater than 10 µM and the TGI is greater than 10 µM. Consider `CCCCCC(=O)Oc1ccc(/C(=C(\C)c2ccc(OC)cc2)c2ccc(OCCN3CCCCC3)cc2)cc1`, for which the GI50 was 4.02 µM and the TGI was 15.8 µM. Regarding `COc1ccc(NC2=C(Br)C(=O)C(C)=C(C)C2=O)cc1`, the GI50 is 1.56 µM and the TGI was 3.16 µM.

As to `C=C(C)[C@@H]1CC[C@@]2(C(=O)O)CC[C@]3(C)C(CCC4[C@@]5(C)CCC(OS(=O)(=O)c6ccccc6)C(C)(C)C5CC[C@]43C)C12` (some centres not stated), the GI50 was 2.76 µM and the TGI was 22.6 µM. As to `CC(=O)O[C@H]1C(=O)[C@@]2(C)[C@H]([C@H](OC(=O)c3ccccc3)[C@]3([O-])C[C@H](OC(=O)[C@H]([O-])[C@@H](NC(=O)c4ccccc4)c4ccccc4)C(C)=C1C3(C)C)[C@]1(OC(C)=O)CO[C@@H]1C[C@@H]2[O-].[Fe+3]`, the GI50 is 0.0351 µM and 0.0363 µM. Regarding `CC1=C(C)C(=O)O[C@@H]([C@](C)(O)[C@]2(O)CC[C@@]3(O)[C@@H]4C[C@H]5O[C@]56CC=CC(=O)[C@]6(C)[C@H]4CC[C@]23C)C1`, the GI50 is 0.119 µM and the TGI amounted to 0.725 µM. On the same counts, the results for `Nc1nc(Nc2ccc(OCc3cccc(F)c3)cc2)c2c(n1)[nH]c1ccc(O)cc12` are 1.98 µM and 5.36 µM.

For the compound `O=C(Nc1cc(-c2ccccc2)[nH]n1)c1ccc(Cl)cc1`, the GI50 was greater than 100 µM and the TGI is greater than 100 µM. Consider `O=P(O)(O)C(O)(Cn1ccnc1)P(=O)(O)O`, for which the GI50 is greater than 87.3 µM and the TGI is greater than 100 µM. The matching figures for `CCCS(=O)(=O)c1nc(NC2CC2)cc(-c2ccc3c(ccn3C3CC(C)(C)NC(C)(C)C3)c2)n1`: 1.75 µM and 3.61 µM. The matching figures for `COc1ccc(/C=N/Nc2nc3ccccc3c(=O)n2-c2ccccc2)c(OCc2ccccc2)c1`: greater than 100 µM and greater than 100 µM. The matching figures for `CC(C)(C)c1nc2c(o1)C(=Nc1ccc(F)cc1)c1ccccc1C2=O`: 5.84 µM and greater than 100 µM.

Turning to `O=C1c2c(c3c4ccc(Br)cc4oc3c3[nH]c4ccccc4c23)C(=O)N1O`, the GI50 was 2.38 µM and the TGI came out at 8.36 µM.
